The results in this text go back to patent US11530222B2, “Substituted pyrrolopyrimidine and pyrazolopyrimidine as Bruton's tyrosine kinase (BTK) degraders” (ACCUTAR BIOTECHNOLOGY INC., priority 2021, dated 2022).

The experiment has as its target T1, BTK (Homo sapiens, UniProt Q06187).
T1 construct: BTK Degradative Activity of Exemplary Compounds of the Present Disclosure in a RAMOS Cell Line; host or cells: RAMOS
Description: BTK degradative activity in a RAMOS cell line (Western blot). Format: cell-based. The conditions noted are these: 6 hours after administration, read-out: RAMOS BTK Degradation DC50. The method, then: RAMOS (ATCC) cells were plated in 24-well plates at 8×10^5 cells/well in the RPMI growth medium containing 10% heat-inactivated FBS and 1× Penicillin Streptomycin, and then incubated at 37° C. overnight. The following day, the test compound was administered to the cells by using 1000× compound stock solution prepared in DMSO at various concentrations. After administration of the compound, the cells were then incubated at 37° C. for 6 hours.
Upon completion, the cells were collected by centrifugation and lysed in Laemmli sample buffer (1×; VWR International). Proteins in cell lysate were separated by SDS-PAGE and transferred to Odyssey nitrocellulose membranes (Licor) with Iblot® dry blotting transfer system (ThermoFisher). Nonspecific binding was blocked by incubating membranes with Intercept Blocking Buffer (Licor) for 1 hour at room temperature with gentle shaking. The membranes were then incubated overnight at 4° C. with primary antibodies anti-BTK (Cell signaling, cat. #8547) and anti-GAPDH (Cell signaling, cat. #5179) diluted in Intercept Blocking Buffer containing 0.1% Tween 20. After washing 3 times with TBS-T, the membranes were incubated with IRDye® 800CW goat anti-mouse IgG (1:20,000, Licor) or IRDye® 800CW goat anti-rabbit IgG (1:20,000, Licor) for 1 hour. After TBS-T washes, membranes were rinsed in TBS and scanned on Odyssey® CLx Imaging System (Licor). The bands were quantified using Image Studio™ Software (Licor).
Table 3 summarizes the BTK degradative activity of exemplary compounds of the present disclosure in a RAMOS cell line 6 hours after administration. The DC50 values (i.e., the concentration of test compound at which 50% of the target protein is degraded) were calculated. A designation of “A” corresponds to a DC50 value less than 10 nM. A designation of “B” corresponds to a DC50 value greater than or equal to 10 nM and less than 100 nM. A designation of “C” corresponds to a DC50 value greater than or equal to 100 nM.

T1 sequence (Q06187 whole entry): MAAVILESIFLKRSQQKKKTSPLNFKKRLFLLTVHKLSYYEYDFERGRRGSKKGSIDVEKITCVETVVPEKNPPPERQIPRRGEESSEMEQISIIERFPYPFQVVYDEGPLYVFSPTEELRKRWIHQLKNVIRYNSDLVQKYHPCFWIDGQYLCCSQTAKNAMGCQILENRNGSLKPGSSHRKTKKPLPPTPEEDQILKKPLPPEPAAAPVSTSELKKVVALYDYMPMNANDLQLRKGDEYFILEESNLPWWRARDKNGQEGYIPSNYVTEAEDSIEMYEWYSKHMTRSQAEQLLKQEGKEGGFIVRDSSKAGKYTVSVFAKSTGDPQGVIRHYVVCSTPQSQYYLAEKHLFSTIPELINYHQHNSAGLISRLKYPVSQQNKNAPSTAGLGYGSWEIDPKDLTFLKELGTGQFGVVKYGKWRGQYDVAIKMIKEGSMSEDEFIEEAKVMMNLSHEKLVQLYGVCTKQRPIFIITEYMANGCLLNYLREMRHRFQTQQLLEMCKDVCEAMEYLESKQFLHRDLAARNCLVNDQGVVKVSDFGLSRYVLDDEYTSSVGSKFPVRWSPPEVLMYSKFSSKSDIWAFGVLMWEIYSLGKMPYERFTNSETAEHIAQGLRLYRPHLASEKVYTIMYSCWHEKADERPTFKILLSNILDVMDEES

As usually defined, the DC50 is the midpoint of the concentration-degradation curve. Consider `O=C1CCC(N2C(=O)c3ccc(OCCCCCCCN4CCN(c5ccc(C(=O)N6CCC[C@@H](Nc7ncnc8[nH]cc(C(=O)c9ccc(Oc%10ccccc%10)cc9Cl)c78)C6)cn5)CC4)cc3C2=O)C(=O)N1` (stereo partly drawn) [Compound 1, 5-((7-(4-(5-((R)-3-((5-(2-chloro-4-phenoxybenzoyl)-7H-pyrrolo [2,3-d]pyrimidin-4-yl)amino)piperidine-1-carbonyl)pyridin-2-yl)piperazin-1-yl)heptyl)oxy)-2-(2,6-dioxopiperidin-3-yl)isoindoline-1,3-dione], for which the DC50 was not below 100 nM.
The figure for `O=C1CCC(N2C(=O)c3ccc(N4CCN(c5ccc(C(=O)N6CCC[C@@H](Nc7ncnc8[nH]cc(C(=O)c9ccc(Oc%10ccccc%10)cc9Cl)c78)C6)cn5)CC4)cc3C2=O)C(=O)N1` (stereo partly drawn) [Compound 2, 5-(4-(5-((R)-3-((5-(2-chloro-4-phenoxybenzoyl)-7H-pyrrolo[2,3-d]pyrimidin-4-yl)amino)piperidine-1-carbonyl)pyridin-2-yl)piperazin-1-yl)-2-(2,6-dioxopiperidin-3-yl)isoindoline-1,3-dione] is not below 100 nM; for `O=C1CCC(N2C(=O)c3ccc(OCCCCCCN4CCN(c5ccc(C(=O)N6CCC[C@@H](Nc7ncnc8[nH]cc(C(=O)c9ccc(Oc%10ccccc%10)cc9Cl)c78)C6)cn5)CC4)cc3C2=O)C(=O)N1` (stereo partly drawn) [Compound 3, 5-((6-(4-(5-((R)-3-((5-(2-chloro-4-phenoxybenzoyl)-7H-pyrrolo [2,3-d]pyrimidin-4-yl)amino)piperidine-1-carbonyl)pyridin-2-yl)piperazin-1-yl)hexyl)oxy)-2-(2,6-dioxopiperidin-3-yl)isoindoline-1,3-dione] it is not below 100 nM; for `O=C1CCC(N2C(=O)c3ccc(OCCCN4CCN(c5ccc(C(=O)N6CCC[C@@H](Nc7ncnc8[nH]cc(C(=O)c9ccc(Oc%10ccccc%10)cc9Cl)c78)C6)cn5)CC4)cc3C2=O)C(=O)N1` (stereo partly drawn) [Compound 4, 5-(3-(4-(5-((R)-3-((5-(2-chloro-4-phenoxybenzoyl)-7H-pyrrolo [2,3-d]pyrimidin-4-yl)amino)piperidine-1-carbonyl)pyridin-2-yl)piperazin-1-yl)propoxy)-2-(2,6-dioxopiperidin-3-yl)isoindoline-1,3-dione] it is not below 100 nM.
With `O=C1CCC(N2C(=O)c3ccc(OCCN4CCN(c5ccc(C(=O)N6CCC[C@@H](Nc7ncnc8[nH]cc(C(=O)c9ccc(Oc%10ccccc%10)cc9Cl)c78)C6)cn5)CC4)cc3C2=O)C(=O)N1` (stereo partly drawn) [Compound 5, 5-(2-(4-(5-((R)-3-((5-(2-chloro-4-phenoxybenzoyl)-7H-pyrrolo[2,3-d]pyrimidin-4-yl)amino)piperidine-1-carbonyl)pyridin-2-yl)piperazin-1-yl)ethoxy)-2-(2,6-dioxopiperidin-3-yl)isoindoline-1,3-dione] the figure was not below 100 nM.
With `O=C1CCC(N2C(=O)c3ccc(OCCCCCN4CCN(c5ccc(C(=O)N6CCC[C@@H](Nc7ncnc8[nH]cc(C(=O)c9ccc(Oc%10ccccc%10)cc9Cl)c78)C6)cn5)CC4)cc3C2=O)C(=O)N1` (stereo partly drawn) [Compound 6, 5-((5-(4-(5-((R)-3-((5-(2-chloro-4-phenoxybenzoyl)-7H-pyrrolo [2,3-d]pyrimidin-4-yl)amino)piperidine-1-carbonyl)pyridin-2-yl)piperazin-1-yl)pentyl)oxy)-2-(2,6-dioxopiperidin-3-yl)isoindoline-1,3-dione] the figure was not below 100 nM; with `O=C1CCC(N2C(=O)c3ccc(N4CCN(CCCCCC(=O)N5CCC[C@@H](Nc6ncnc7[nH]cc(C(=O)c8ccc(Oc9ccccc9)cc8Cl)c67)C5)CC4)cc3C2=O)C(=O)N1` (stereo partly drawn) [Compound 7, 5-(4-(6-((R)-3-((5-(2-chloro-4-phenoxybenzoyl)-7H-pyrrolo[2,3-d]pyrimidin-4-yl)amino)piperidin-1-yl)-6-oxohexyl)piperazin-1-yl)-2-(2,6-dioxopiperidin-3-yl)isoindoline-1,3-dione], 10 to 100 nM; with `O=C1CCC(N2C(=O)c3ccc(N4CCN(CCCCCCC(=O)N5CCC[C@@H](Nc6ncnc7[nH]cc(C(=O)c8ccc(Oc9ccccc9)cc8Cl)c67)C5)CC4)cc3C2=O)C(=O)N1` (some centres unmarked) [Compound 8], 10 to 100 nM.
Consider `O=C1CCC(N2C(=O)c3ccc(N4CCN(Cc5ccc(C(=O)N6CCC[C@@H](Nc7ncnc8[nH]cc(C(=O)c9ccc(Oc%10ccccc%10)cc9Cl)c78)C6)cn5)CC4)cc3C2=O)C(=O)N1` (stereo partly drawn) [Compound 9, 5-(4-((5-((R)-3-((5-(2-chloro-4-phenoxybenzoyl)-7H-pyrrolo[2,3-d]pyrimidin-4-yl)amino)piperidine-1-carbonyl)pyridin-2-yl)methyl)piperazin-1-yl)-2-(2,6-dioxopiperidin-3-yl)isoindoline-1,3-dione], for which the half-maximal degradation concentration (DC50) lay within 10 to 100 nM.
The figure for `O=C1CCC(N2C(=O)c3ccc(N4CCN(CC5CCN(c6ccc(C(=O)N7CCC[C@@H](Nc8ncnc9[nH]cc(C(=O)c%10ccc(Oc%11ccccc%11)cc%10Cl)c89)C7)cn6)CC5)CC4)cc3C2=O)C(=O)N1` (stereo partly drawn) [Compound 10, 5-(4-((1-(5-((R)-3-((5-(2-chloro-4-phenoxybenzoyl)-7H-pyrrolo[2,3-d]pyrimidin-4-yl)amino)piperidine-1-carbonyl)pyridin-2-yl)piperidin-4-yl)methyl)piperazin-1-yl)-2-(2,6-dioxopiperidin-3-yl)isoindoline-1,3-dione] is not below 100 nM; for `O=C1CCC(N2C(=O)c3ccc(N4CCN(CCCCC(=O)N5CCC[C@@H](Nc6ncnc7[nH]cc(C(=O)c8ccc(Oc9ccccc9)cc8Cl)c67)C5)CC4)cc3C2=O)C(=O)N1` (stereo partly drawn) [Compound 11, 5-(4-(5-((R)-3-((5-(2-chloro-4-phenoxybenzoyl)-7H-pyrrolo[2,3-d]pyrimidin-4-yl)amino)piperidin-1-yl)-5-oxopentyl)piperazin-1-yl)-2-(2,6-dioxopiperidin-3-yl)isoindoline-1,3-dione] it is 10 to 100 nM.
With `O=C1CCC(N2C(=O)c3ccc(N4CCN(CCCCCCCN5CCC(Nc6ncnc7[nH]cc(C(=O)c8ccc(Oc9ccccc9)cc8Cl)c67)CC5)CC4)cc3C2=O)C(=O)N1` (centres unmarked) [Compound 12, 5-(4-(7-(4-((5-(2-chloro-4-phenoxybenzoyl)-7H-pyrrolo[2,3-d]pyrimidin-4-yl)amino)piperidin-1-yl)heptyl)piperazin-1-yl)-2-(2,6-dioxopiperidin-3-yl)isoindoline-1,3-dione] the figure was 10 to 100 nM; with `O=C1CC[C@H](N2Cc3cc(N4CCN(CCCCCC(=O)N5CCC(Nc6ncnc7[nH]cc(C(=O)c8ccc(Oc9ccccc9)cc8Cl)c67)CC5)CC4)ccc3C2=O)C(=O)N1` [Compound 13, (S)-3-(5-(4-(6-(4-((5-(2-chloro-4-phenoxybenzoyl)-7H-pyrrolo[2,3-d]pyrimidin-4-yl)amino)piperidin-1-yl)-6-oxohexyl)piperazin-1-yl)-1-oxoisoindolin-2-yl)piperidine-2,6-dione], less than 10 nM; with `O=C1CC[C@H](N2Cc3cc(N4CCN(CCCCC(=O)N5CCC[C@@H](Nc6ncnc7[nH]cc(C(=O)c8ccc(Oc9ccccc9)cc8Cl)c67)C5)CC4)ccc3C2=O)C(=O)N1` [Compound 14, (S)-3-(5-(4-(5-((R)-3-((5-(2-chloro-4-phenoxybenzoyl)-7H-pyrrolo[2,3-d]pyrimidin-4-yl)amino)piperidin-1-yl)-5-oxopentyl)piperazin-1-yl)-1-oxoisoindolin-2-yl)piperidine-2,6-dione], 10 to 100 nM.
With `O=C1CCC(N2C(=O)c3ccc(N4CCN(CCCCCCN5CCC[C@@H](Nc6ncnc7[nH]cc(C(=O)c8ccc(Oc9ccccc9)cc8Cl)c67)C5)CC4)cc3C2=O)C(=O)N1` (stereo partly drawn) [Compound 15, 5-(4-(6-((R)-3-((5-(2-chloro-4-phenoxybenzoyl)-7H-pyrrolo[2,3-d]pyrimidin-4-yl)amino)piperidin-1-yl)hexyl)piperazin-1-yl)-2-(2,6-dioxopiperidin-3-yl)isoindoline-1,3-dione] the figure was not below 100 nM; with `O=C1CC[C@H](N2Cc3cc(N4CCN(CCCCCC(=O)N5CCC[C@@H](Nc6ncnc7[nH]cc(C(=O)c8ccc(Oc9ccccc9)cc8Cl)c67)C5)CC4)ccc3C2=O)C(=O)N1` [Compound 16, (S)-3-(5-(4-(6-((R)-3-((5-(2-chloro-4-phenoxybenzoyl)-7H-pyrrolo[2,3-d]pyrimidin-4-yl)amino)piperidin-1-yl)-6-oxohexyl)piperazin-1-yl)-1-oxoisoindolin-2-yl)piperidine-2,6-dione], 10 to 100 nM.
Regarding `O=C1CCC(N2Cc3cc(N4CCN(CCCCCCC(=O)N5CCC[C@@H](Nc6ncnc7[nH]cc(C(=O)c8ccc(Oc9ccccc9)cc8Cl)c67)C5)CC4)ccc3C2=O)C(=O)N1` (stereo partly drawn) [Compound 17, 3-(5-(4-(7-((R)-3-((5-(2-chloro-4-phenoxybenzoyl)-7H-pyrrolo[2,3-d]pyrimidin-4-yl)amino)piperidin-1-yl)-7-oxoheptyl)piperazin-1-yl)-1-oxoisoindolin-2-yl)piperidine-2,6-dione], the DC50 lay in the range of 10 to 100 nM.
